In PMC10120462, “Styrylquinazoline derivatives as ABL inhibitors selective for different DFG orientations” (Journal of Enzyme Inhibition and Medicinal Chemistry, 2023):

Tests used:
K562 cells = assay: Cell cycle assay (Muse Cell-Cycle Kit, flow cytometry); type: cell-based, human; conditions: 16 h, concentration not given; control 28.68%
Protocol: The interesting inhibitory potential of ABL kinase and the high antiproliferative activity of several styrylquinazoline derivatives prompted us to further investigate their mechanism of action.
K562 cells were seeded in 3 cm Petri dishes (Nunc) at a density of 150,000 cells per well and incubated under standard conditions at 37 °C for 24 h. […] After 16 h of treatment, assays were performed using a Muse Cell-Cycle Kit (Millipore) according to the supplier’s instructions. Briefly, leukaemia cells were collected, washed in cold PBS, and centrifuged. Cells were then fixed in ice-cold 70% ethanol and stored at −20 °C overnight. The next day, leukaemia cells were washed with cold PBS, centrifuged and resuspended in Muse™ Cell Cycle Reagent. Samples were incubated for 30 min at room temperature in the dark. After staining, the levels of cellular subpopulations in each cell cycle phase were determined using a Muse Cell Analyser (Millipore). Experiments were performed at least four times.

CSK = biological target: T1, CSK (Homo sapiens, UniProt P41240); assay: Tyrosine kinase assay (Kinase Selectivity System TK-2, ADP-Glo); type: biochemical; conditions: 1 h incubation, mean ± SD of four experiments
T1 construct: purchased Promega

BRK = biological target: T2, BRK (Homo sapiens, UniProt Q13882); assay: as above; type: biochemical; conditions: 1 h incubation, mean ± SD of four experiments
T2 construct: purchased Promega

Fyn A = biological target: T3, Fyn A (Homo sapiens, UniProt P06241); assay: as above; type: biochemical; conditions: 1 h incubation, mean ± SD of four experiments
T3 construct: purchased Promega
From the text: All newly synthesised derivatives were screened for their inhibitory potential towards eight non-receptor tyrosine kinases, such as ABL, BTK, BRK and Src family kinases, such as CSK, Lyn, Lck, Fyn and Src. […] To facilitate the analysis of the structure and enzymatic activity, all tested compounds were divided into four subgroups based on the main structural scaffolds (the general structure of each group is shown in the second column of Table 1). Series A, B, and C were subdivided according to the S^4-aryl substituent, while D represents the different styryl groups at the C^2-quinazoline position.
Herein, we used a kinase assay that contained fully expressed kinases with their regulatory domains, which are responsible for autoinhibition. The proteins are present in their unphosphorylated form and the procedure required supplementation with ATP. Importantly, autophosphorylation of ABL is dependent on […] concentration of the protein. Thus, our experimental conditions reflect the cellular process to be simulated. The luminescence signal detected after one hour of incubation with a peptide substrate was a measure of inhibition. Under these conditions, the question of whether the inhibitors tested bind to the ortho or allosteric site of the protein could be answered. […] To test this hypothesis, further molecular docking experiments were performed to more precisely determine the binding of the tested compounds to the ABL kinase.
To determine the inhibition of non-receptor tyrosine kinases, assays were performed using the kinase selectivity system TK-2 and the ADP-Glo Kinase Assay (both from Promega). The protocol was previously developed by our group and described in reports[12]^,[36]. Experiments were performed at least four times. Data are expressed as percentage of tyrosine kinase inhibitory activity after treatment with the derivatives tested.

Src = biological target: T4, Src (Homo sapiens, UniProt P12931); assay: as above; type: biochemical; conditions: 1 h incubation, mean ± SD of four experiments
T4 construct: purchased Promega

Lyn B = biological target: T5, Lyn B (Homo sapiens, UniProt P07948); assay: as above; type: biochemical; conditions: 1 h incubation, mean ± SD of four experiments
T5 construct: purchased Promega

BTK = biological target: T6, BTK (Homo sapiens, UniProt Q06187); assay: as above; type: biochemical; conditions: 1 h incubation, mean ± SD of four experiments
T6 construct: purchased Promega

ABL = biological target: T7, ABL (Homo sapiens, UniProt P00519); assay: as above; type: biochemical; conditions: 1 h incubation, mean ± SD of four experiments; for Inhibition of tyrosine kinase activity [%] ABL: 0.5 μM
T7 construct: purchased Promega

U-251 = assay: Cytotoxicity studies (MTS), antiproliferative activity; type: cell-based, human; conditions: for IC50: Homo sapiens, U-251, 72 h, MTS
From the text: (§1) In contrast, the other cell lines studied represent common cancers found in the human population. Nevertheless, these cell lines are characterised by a different landscape of kinase expression, as reported in[36]. In chronic leukaemia cells, an aberration of the Philadelphia chromosome is common in which a fragment of chromosome 9 is displaced to chromosome 22, leading to the formation of the oncogenic protein BCR-ABL. The altered structure of the protein leads to abnormal activity that promotes excessive growth and differentiation of cells even in the absence of growth factors, as well as inhibition of apoptosis and formation of metastases. Moreover, the status of the TP53 gene in leukaemia is not insignificant. Mutations of the TP53 gene occur in more than 50% of all cancers, leading to increased metastasis and an overall poor prognosis[38]^,[39]. The p53 protein encoded by this gene plays a pivotal role in controlling cell division or cell fate when damage is detected. […] Therefore, interaction between the signalling network of the BCR-ABL pathway and p53 often results in an impairment of p53 function and survival[43]^,[44]. […] Selectivity studies were performed on normal human fibroblast – NHDF cell line.
(§2) M. Rusin from the Maria Sklodowska-Curie Memorial Cancer Centre and Institute of Oncology in Gliwice, Poland. […] G. Kramer-Marek from the Institute of Cancer Research in London, United Kingdom. The human suspension chronic myeloids leukaemia cell line K562 and the pancreatic ductal adenocarcinoma cell line PANC-1 were purchased from Merck. The normal human dermal fibroblasts cell line NHDF were obtained from PromoCell. All adherent cancer cell lines were cultured in Dulbecco’s Modified Eagle’s medium (DMEM) supplemented with 10% heat-inactivated foetal bovine serum – FBS (all from Merck). […] Each complete medium contained a mixture of two antibiotics - penicillin and streptomycin (1% v/v; Gibco). Cell lines were cultured at 37 °C with 5% CO2 humidified atmosphere.
(§3) The assay was carried out after 72 h of incubation with different concentrations of the tested compounds. Then DMEM without phenol red was added to each well with CellTiter 96®AQueous One Solution-MTS (Promega) solution and incubated for 1 h or 3 h (PANC-1) at 37 °C. The optical densities of the samples were measured at 490 nm using a multi-plate reader (Synergy 4, BioTek). […] Each compound was tested in triplicate in a single experiment and each experiment was performed three or four times.

HCT 116 p53−/− = assay: as above; type: cell-based, human; conditions: Homo sapiens, HCT-116; 72 h, MTS
From the text: as §1, §2, §3

PANC-1 = assay: as above; type: cell-based, human; conditions: Homo sapiens, PANC-1; 72 h, MTS
From the text: as §1, §2, §3

MCF-7 = assay: as above; type: cell-based, human; conditions: for IC50: Homo sapiens, MCF7, 72 h, MTS
From the text: as §1, §2, §3

A549 = assay: as above; type: cell-based, human; conditions: for IC50: Homo sapiens, A549, 72 h, MTS
From the text: as §1, §2, §3

K562 = assay: as above; type: cell-based, human; conditions: for IC50: Homo sapiens, K562, 72 h, MTS
From the text: as §1, §2, §3

HCT 116 p53+/+ = assay: as above; type: cell-based, human; conditions: for IC50: Homo sapiens, HCT-116, 72 h, MTS
From the text: as §1, §2, §3

NHDF = assay: Cytotoxicity studies (MTS), normal fibroblasts; type: cell-based; conditions: 72 h, normal human fibroblasts, read-out: Antiproliferative activity IC50 NHDF
From the text: as §1, §2, §3

Lck = biological target: T8, Lck (Homo sapiens, UniProt P06239); assay: Tyrosine kinase assay (Kinase Selectivity System TK-2, ADP-Glo); type: biochemical; conditions: 1 h incubation, mean ± SD of four experiments
T8 construct: purchased Promega
T8 sequence (P06239 whole entry): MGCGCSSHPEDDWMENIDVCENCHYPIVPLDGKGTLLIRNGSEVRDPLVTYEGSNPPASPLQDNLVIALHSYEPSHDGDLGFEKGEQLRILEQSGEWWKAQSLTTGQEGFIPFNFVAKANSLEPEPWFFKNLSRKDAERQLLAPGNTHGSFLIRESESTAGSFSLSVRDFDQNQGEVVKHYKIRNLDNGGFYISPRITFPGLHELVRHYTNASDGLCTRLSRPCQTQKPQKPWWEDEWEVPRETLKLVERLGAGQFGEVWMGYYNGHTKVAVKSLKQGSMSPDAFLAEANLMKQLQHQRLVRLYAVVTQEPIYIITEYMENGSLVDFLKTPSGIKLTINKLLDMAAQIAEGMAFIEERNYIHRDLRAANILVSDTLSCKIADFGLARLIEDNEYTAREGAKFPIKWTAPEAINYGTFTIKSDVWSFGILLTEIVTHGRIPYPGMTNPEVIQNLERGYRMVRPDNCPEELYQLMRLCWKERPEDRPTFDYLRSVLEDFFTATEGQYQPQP

T7 sequence (P00519 whole entry): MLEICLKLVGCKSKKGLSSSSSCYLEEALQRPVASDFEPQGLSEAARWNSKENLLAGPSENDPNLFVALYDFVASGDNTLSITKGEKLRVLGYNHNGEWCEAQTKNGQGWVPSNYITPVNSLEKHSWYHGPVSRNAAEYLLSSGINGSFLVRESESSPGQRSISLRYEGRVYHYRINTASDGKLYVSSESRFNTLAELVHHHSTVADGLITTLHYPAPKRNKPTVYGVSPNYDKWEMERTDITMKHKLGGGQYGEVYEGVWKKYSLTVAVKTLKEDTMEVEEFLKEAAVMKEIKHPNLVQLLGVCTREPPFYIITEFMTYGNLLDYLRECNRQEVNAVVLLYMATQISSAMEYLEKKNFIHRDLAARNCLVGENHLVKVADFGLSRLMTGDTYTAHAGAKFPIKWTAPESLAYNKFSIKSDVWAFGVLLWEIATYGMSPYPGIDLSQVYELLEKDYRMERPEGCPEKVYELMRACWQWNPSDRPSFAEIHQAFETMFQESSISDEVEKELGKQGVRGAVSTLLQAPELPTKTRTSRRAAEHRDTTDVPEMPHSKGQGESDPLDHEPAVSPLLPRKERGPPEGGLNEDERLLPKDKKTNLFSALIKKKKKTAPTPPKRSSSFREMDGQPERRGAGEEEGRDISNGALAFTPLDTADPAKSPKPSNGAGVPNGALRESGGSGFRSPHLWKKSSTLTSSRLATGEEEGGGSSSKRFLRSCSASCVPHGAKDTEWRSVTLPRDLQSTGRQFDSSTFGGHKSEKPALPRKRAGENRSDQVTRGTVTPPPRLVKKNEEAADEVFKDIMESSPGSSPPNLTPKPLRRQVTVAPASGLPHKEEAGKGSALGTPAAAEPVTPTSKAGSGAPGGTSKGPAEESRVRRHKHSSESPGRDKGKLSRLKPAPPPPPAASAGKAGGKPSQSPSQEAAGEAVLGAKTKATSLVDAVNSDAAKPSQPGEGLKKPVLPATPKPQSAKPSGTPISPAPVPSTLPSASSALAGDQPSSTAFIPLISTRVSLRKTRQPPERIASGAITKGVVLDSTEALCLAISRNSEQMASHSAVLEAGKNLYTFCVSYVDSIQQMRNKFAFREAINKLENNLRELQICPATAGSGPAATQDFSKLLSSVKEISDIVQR
T5 sequence (P07948 1-491 isoform P07948-2): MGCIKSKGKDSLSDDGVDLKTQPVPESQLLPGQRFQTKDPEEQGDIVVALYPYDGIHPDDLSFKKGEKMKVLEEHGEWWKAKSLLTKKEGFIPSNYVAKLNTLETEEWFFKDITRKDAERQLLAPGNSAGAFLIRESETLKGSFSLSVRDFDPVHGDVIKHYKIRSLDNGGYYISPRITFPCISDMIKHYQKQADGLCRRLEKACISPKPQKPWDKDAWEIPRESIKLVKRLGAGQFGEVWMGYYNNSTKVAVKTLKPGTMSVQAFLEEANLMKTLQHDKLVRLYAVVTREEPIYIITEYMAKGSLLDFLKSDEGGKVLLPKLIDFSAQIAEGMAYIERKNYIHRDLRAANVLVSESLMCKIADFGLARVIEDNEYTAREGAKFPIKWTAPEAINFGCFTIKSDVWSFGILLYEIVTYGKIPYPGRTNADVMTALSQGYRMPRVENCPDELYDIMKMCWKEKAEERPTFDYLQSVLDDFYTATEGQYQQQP
T1 sequence (P41240 whole entry): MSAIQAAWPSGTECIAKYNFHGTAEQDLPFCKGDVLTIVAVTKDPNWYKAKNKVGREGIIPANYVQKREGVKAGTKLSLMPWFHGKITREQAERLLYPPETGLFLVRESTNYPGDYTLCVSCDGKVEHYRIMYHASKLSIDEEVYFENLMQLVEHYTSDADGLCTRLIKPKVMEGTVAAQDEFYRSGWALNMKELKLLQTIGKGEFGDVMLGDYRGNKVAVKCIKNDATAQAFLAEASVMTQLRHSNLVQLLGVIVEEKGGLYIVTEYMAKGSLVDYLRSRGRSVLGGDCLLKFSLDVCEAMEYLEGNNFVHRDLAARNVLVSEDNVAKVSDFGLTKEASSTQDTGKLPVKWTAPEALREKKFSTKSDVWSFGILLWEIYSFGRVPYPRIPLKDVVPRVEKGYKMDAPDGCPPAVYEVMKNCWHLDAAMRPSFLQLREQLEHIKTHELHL
T4 sequence (P12931 whole entry): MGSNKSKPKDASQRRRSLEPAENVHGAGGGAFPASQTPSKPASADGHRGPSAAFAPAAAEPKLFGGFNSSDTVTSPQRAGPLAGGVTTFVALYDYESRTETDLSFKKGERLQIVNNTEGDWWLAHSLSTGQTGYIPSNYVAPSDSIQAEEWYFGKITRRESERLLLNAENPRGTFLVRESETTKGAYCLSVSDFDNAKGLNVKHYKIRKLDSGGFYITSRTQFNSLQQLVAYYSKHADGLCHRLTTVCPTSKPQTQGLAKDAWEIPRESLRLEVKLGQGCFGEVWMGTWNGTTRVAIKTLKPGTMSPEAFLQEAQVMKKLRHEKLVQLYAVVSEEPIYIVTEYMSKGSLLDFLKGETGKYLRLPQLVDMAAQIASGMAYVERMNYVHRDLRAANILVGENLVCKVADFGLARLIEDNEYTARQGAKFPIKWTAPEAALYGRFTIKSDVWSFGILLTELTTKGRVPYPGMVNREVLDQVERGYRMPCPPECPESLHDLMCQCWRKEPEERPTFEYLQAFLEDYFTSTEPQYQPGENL
T3 sequence (P06241 whole entry): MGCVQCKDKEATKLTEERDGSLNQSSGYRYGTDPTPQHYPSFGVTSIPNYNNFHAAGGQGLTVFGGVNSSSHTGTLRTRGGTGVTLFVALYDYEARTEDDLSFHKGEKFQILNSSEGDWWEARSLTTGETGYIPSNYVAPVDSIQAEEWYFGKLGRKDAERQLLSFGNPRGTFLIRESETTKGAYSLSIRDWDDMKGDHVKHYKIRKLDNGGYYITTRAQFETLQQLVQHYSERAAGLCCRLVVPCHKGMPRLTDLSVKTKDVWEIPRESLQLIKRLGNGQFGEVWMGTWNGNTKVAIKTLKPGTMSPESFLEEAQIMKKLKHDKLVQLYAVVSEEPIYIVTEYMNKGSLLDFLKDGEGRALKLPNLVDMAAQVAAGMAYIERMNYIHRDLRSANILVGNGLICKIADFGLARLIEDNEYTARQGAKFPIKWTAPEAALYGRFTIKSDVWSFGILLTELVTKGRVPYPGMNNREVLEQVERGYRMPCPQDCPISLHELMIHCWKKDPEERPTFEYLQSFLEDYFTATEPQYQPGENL
T2 sequence (Q13882 whole entry): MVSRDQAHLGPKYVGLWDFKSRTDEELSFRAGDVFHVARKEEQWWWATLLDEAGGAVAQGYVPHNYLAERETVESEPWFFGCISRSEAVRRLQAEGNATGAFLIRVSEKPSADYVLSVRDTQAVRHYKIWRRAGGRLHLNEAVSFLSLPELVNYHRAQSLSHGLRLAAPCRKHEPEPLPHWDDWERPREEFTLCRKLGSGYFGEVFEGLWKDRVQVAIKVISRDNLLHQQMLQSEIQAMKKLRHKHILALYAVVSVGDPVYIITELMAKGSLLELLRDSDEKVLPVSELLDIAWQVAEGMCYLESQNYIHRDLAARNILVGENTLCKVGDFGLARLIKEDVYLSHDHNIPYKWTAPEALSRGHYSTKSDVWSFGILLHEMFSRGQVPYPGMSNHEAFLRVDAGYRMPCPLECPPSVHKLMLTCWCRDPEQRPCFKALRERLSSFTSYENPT
T6 sequence (Q06187 whole entry): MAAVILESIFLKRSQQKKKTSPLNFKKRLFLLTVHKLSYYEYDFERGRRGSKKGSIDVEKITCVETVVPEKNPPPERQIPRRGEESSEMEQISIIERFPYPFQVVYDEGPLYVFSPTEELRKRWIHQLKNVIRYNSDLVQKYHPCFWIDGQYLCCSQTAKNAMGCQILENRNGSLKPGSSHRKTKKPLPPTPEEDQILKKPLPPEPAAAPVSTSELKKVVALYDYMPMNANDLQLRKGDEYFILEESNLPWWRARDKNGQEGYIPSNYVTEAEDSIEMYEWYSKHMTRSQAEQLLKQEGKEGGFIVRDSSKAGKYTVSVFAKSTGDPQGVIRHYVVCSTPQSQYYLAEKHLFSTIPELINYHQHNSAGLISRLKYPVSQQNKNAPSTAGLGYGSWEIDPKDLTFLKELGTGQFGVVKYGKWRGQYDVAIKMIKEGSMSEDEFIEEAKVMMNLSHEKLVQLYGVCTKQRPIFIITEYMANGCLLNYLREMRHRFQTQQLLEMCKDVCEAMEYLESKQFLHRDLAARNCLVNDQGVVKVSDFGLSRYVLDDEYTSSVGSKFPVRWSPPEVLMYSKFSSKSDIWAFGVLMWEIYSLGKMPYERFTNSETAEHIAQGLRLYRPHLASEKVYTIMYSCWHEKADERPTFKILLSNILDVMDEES

Row | SMILES | inhibition at 0.5 µM (CSK) [%] | inhibition at 0.5 µM (BRK) [%] | inhibition at 0.5 µM (Fyn A) [%] | inhibition at 0.5 µM (Src) [%] | inhibition at 0.5 µM (Lyn B) [%] | inhibition at 0.5 µM (BTK) [%] | inhibition at 0.5 µM (ABL) [%] | IC50 (U-251) [µM] | IC50 (HCT 116 p53−/−) [µM] | IC50 (PANC-1) [µM] | IC50 (A549) [µM] | IC50 (K562) [µM] | IC50 (HCT 116 p53+/+) [µM] | IC50 (NHDF) [µM] | inhibition at 0.5 µM (Lck) [%] | Inhibition of tyrosine kinase activity [%] ABL (ABL) | further results
1 | CNC(=O)c1ccccc1Sc1ccc2c(/C=C/c3ccccn3)n[nH]c2c1 [Axitinib, axitinib, reference compound] | 11.4 ± 3.89 | 0 | 43.8 ± 2.96 | 10.8 ± 1.95 | 39 ± 9.95 | – | – | – | – | – | – | – | – | – | – | – | Fraction of cells in the G2/M phase (K562 cells): 47.28%
2 | COc1ccc(/C=C/c2nc(Sc3ccccc3Cl)c3ccccc3n2)c(OC)c1 [IS16, 2-[(E)-2–(2,4-dimethoxyphenyl)ethenyl]-4–(2-chlorophenylthio)quinazoline] | 15.5 ± 2.88 | 0 | 50.1 ± 3.49 | 0 | 0 | 13.1 ± 2.69 | 35.6 ± 1.5 | 20.9 ± 1.63 | > 10 | > 2.5 | 13.4 ± 0.6 | 7.83 ± 0.753 | > 15 | 14.6 ± 1.27 | 48.1 ± 6.55 | – | Selectivity index U-251 (U-251; versus NHDF): 1.20; IC50 (MCF-7): > 25 µM; Selectivity index MCF-7 (MCF-7; versus NHDF): 1.00; Selectivity index A549 (A549; versus NHDF): 1.86; Selectivity index K562 (K562; versus NHDF): 3.20; Selectivity index HCT 116 p53+/+ (HCT 116 p53+/+; versus NHDF): 1.67
3 | COc1ccccc1/C=C/c1nc(Sc2cc3c(cc2Br)OCO3)c2ccccc2n1 [IS11, 5-{2-[(E)-2–(2-methoxyphenyl)ethenyl]quinazolin-4-ylthio}-6-bromo-2H-1,3-benzodioxole] | 50.7 ± 5.6 | 0 | 19.1 ± 3.57 | 40.9 ± 1.77 | 0.86 ± 0.23 | 2.87 ± 0.67 | 18.4 ± 2.37 | > 5 | > 15 | > 10 | > 5 | > 2.5 | > 15 | 21.7 ± 1.53 | 0 | inactive | –
4 | COc1ccc(/C=C/c2nc(Sc3cc4c(cc3Br)OCO4)c3ccccc3n2)c(OC)c1 [IS17, 5-{2-[(E)-2–(2,4-dimethoxyphenyl)ethenyl]quinazolin-4-ylthio}-6-bromo-2H-1,3-benzodioxole] | 7.77 ± 3.16 | 0 | 19.8 ± 3.51 | 21 ± 1.82 | 0 | 9.58 ± 0.62 | 11.9 ± 2.86 | 20.2 ± 0.9 | > 15 | > 15 | > 15 | > 10 | > 15 | 21.3 ± 0.8 | 0 | inactive | –
5 | COc1ccccc1/C=C/c1nc(Sc2cc3c(cc2Br)OCO3)c2ccc(Cl)cc2n1 [IS15, 5-{2-[(E)-2–(2-methoxyphenyl)ethenyl]-7-chloroquinazolin-4-ylthio}-6-bromo-2H-1,3-benzodioxole] | 33.1 ± 1.19 | 27.2 ± 1.31 | 57.5 ± 4.04 | 53.4 ± 3.13 | 32.3 ± 2.51 | 39.3 ± 2.69 | 41 | > 25 | > 25 | > 25 | > 25 | 21.2 ± 2.19 | > 25 | > 25 | 51.5 ± 4.55 | 41.81 ± 4.38% | IC50 (MCF-7): > 25 µM
6 | COc1cccc(Sc2nc(/C=C/c3ccccc3OC)nc3ccccc23)c1 [IS7, 2-[(E)-2–(2-methoxyphenyl)ethenyl]-4–(3-methoxyphenylthio)quinazoline] | 39.3 ± 4.74 | 0 | 25.7 ± 2.29 | 8.17 ± 1.71 | 0 | 53.5 ± 1.33 | 45.9 ± 2.63 | > 15 | > 15 | > 15 | > 15 | > 10 | > 15 | > 20 | 0 | – | –
7 | COc1ccccc1/C=C/c1nc(Sc2ccccc2Br)c2ccccc2n1 [IS4, 2-[(E)-2–(2-methoxyphenyl)ethenyl]-4–(2-bromophenylthio)quinazoline] | 17.4 ± 6.31 | 0 | 34.1 ± 2.53 | 18.5 ± 1.07 | 3.39 ± 0.47 | 45.9 ± 7.54 | 29.8 ± 0.95 | > 15 | > 10 | > 25 | > 15 | > 15 | > 10 | > 25 | 0 | – | Inhibition of tyrosine kinase activity [%] BTK (BTK; 0.5 μM): moderate activity
